Read-outs that look alike come from different tables or passages of the source.
What was measured:
[1] = system: HER-2 receptor (Hsp90 client) in MCF-7 cells; assay: HER-2 degradation assay (MCF-7 cells, 16 h, phycoerythrin-labeled antibody and flow cytometry); format: cell-based, human
in vivo = details: Balb/C, mouse, plasma
[2] = system: MCF-7 breast cancer cells; assay: MTS cell growth inhibition assay; format: cell-based, human; details: MCF-7 cells
[3] = Pharmacokinetics in Balb/C mice (IV 10 mg/kg, PO 100 mg/kg); details: for IV Parameters T1/2 / IV Parameters VSS / IV Parameters Cl: IV 10 mg/kg; for IV Parameters T1/2 / IV Parameters VSS / PO Parameters T1/2 / PO Parameters Cmax / PO Parameters Tmax / PO Parameters AUC: H3PO4 salts; for PO Parameters T1/2 / PO Parameters Cmax / PO Parameters Tmax / PO Parameters AUC: PO 100 mg/kg; for PO Parameters Cmax: plasma; for IV Parameters Cl: H3PO4 salts in phosphatidylcholine/water dispersion; for PO Parameters AUC: over 4 h; for PO Parameters % F: oral bioavailability, PO 100 mg/kg vs IV 10 mg/kg
[4] = system: Purified native Hsp90 protein (mixture of alpha and beta) from HeLa cells; assay: Fluorescence-based competitive binding assay for biotinylated-geldanamycin to purified Hsp90; parameters: species or system human; details: HSP90 binding ability; competition with biotin-GM
Her-2 in MCF-7 cells = assay: HER2 inhibition assay (Her-2 degradation, MCF-7 cells, 24 incubation, flow cytometry); format: cell-based; details: Homo sapiens, MCF7, concentration necessary to degrade 50% of Her 2 expression
Description: MCF-7 cells are seeded in 24 well plates at a density of approximately 30,000 cells/well and allowed to grow for 16 hours in DMEM supplemented with 10% FBS. Drug is then added at a concentration range of 100 uM to 0.01 uM. Cells are incubated for an additional […]. Drug treated cells and untreated control cells are trypsinized, and incubated at room temperature for 15 minutes with anti Her-2 neu Ab conjugated with phycoerythrin (Becton Dickinson, San Jose Calif.; Cat no. 340552) at a concentration of 0.25 ug/ml, or non-specific control IgG1 conjugated with phycoerythrin (Becton Dickinson, San Jose Calif.; Cat no. 340761). Samples were analyzed using a FACS Calibur flow cytometer (Becton Dickinson) equipped with Argon-ion laser that which emits 15 mW of 488 nm light for excitation of the phycoerythrin fluorochrome. 10,000 events were collected per sample. A fluorescence histogram was generated and the mean fluorescence intensity (mfi) of each sample was determined using Cellquest software. The background was defined as the mfi generated from cells incubated with control IgG, and was subtracted from each sample stained with the HER-2/neu Ab Percent degradation of Her-2 was calculated as follows: % Her-2 degradation=(mfi HER-2 sample)/(mfi HER-2 untreated cells)×100
The compounds in the table below were prepared as described above and evaluated for Her-2 degradation ability based on the above assay (example 314).

[5] = system: N87 xenograft model of human stomach cancer; details: oral 2×100 mg/kg/day, 5 days/week
[6] = Mouse pharmacokinetics after oral administration at 100 mg/kg
[7] = Solubility in simulated gastric fluid, simulated intestinal fluid and serum; format: physicochemical; details: for Serum (PH 7.4): solubility in serum; for Gastric (PH 2.0): solubility in simulated gastric fluid; for Intestinal (PH 6.5): solubility in simulated intestinal fluid
[8] = Homo sapiens, MCF7, MCF-7 cells, 16 h, SEM 6-11% of the mean, read-out: HER-2 IC50
[9] = Homo sapiens, MCF7, 120 h, 5 days, SEM 9-21% of the mean
[10] = Homo sapiens, MCF7, MCF-7 cells, 16 h, average of at least three observations, read-out: HER-2 IC50

CCC(C)NCCCn1c(Sc2cc(OC)ccc2I)nc2c(N)ncnc21 (racemic) [Compound 109, 9-(3-sec-Butylamino-propyl)-8-(2-iodo-5-methoxy-phenylsulfanyl)-9H-purin-6-ylamine (racemate)]
IC50 [1, 8]: 210 nM | clearance (in vivo; iv, 10 mg/kg): 33 mL/min/kg | AUC (in vivo; po, 100 mg/kg): 6330 ng·h/mL | Tmax (in vivo; po, 100 mg/kg): 30 min | bioavailability (in vivo; po, 100 mg/kg): 28% | IC50 [2, 9]: 200 nM | IV Parameters T1/2 [3]: 78 min | IV Parameters VSS [3]: 3.4 L/kg | PO Parameters T1/2 [3]: 42 min | PO Parameters Cmax [3]: 4800 ng/mL

CCCCn1c(Cc2cc(OC)ccc2OC)nc2c(N)ncnc21 [Compound 1, 8-(2,5-dimethoxybenzyl)-N-9-butyladenine]
IC50 [1, 10]: 12000 nM | IC50 [4]: 10000 nM | IC50 (Her-2 in MCF-7 cells): 6000 nM

C#CCCCn1c(Cc2cc(OC)ccc2OC)nc2c(N)nc(F)nc21 [Compound 2, 8-(2,5-dimethoxybenzyl)-N9-pentynyl-2-fluoro adenine]
IC50 (Her-2 in MCF-7 cells): 600 nM

COc1ccc(OC)c(Cc2nc3c(N)nc(F)nc3n2CCC=C(C)C)c1 [Compound 3, 8-(2,5-Dimethoxy-benzyl)-2-fluoro-9-(4-methyl-pent-3-enyl)-9H-purin-6-ylamine]
IC50 [4]: 1100 nM | IC50 (Her-2 in MCF-7 cells): 500 nM

COc1ccc(OC)c(Cc2nc3c(N)nc(F)nc3n2CCCCCBr)c1 [Compound 5, 8-(2,5-Dimethoxy-benzyl)-2-fluoro-9-(5-bromo-pentyl)-9H-purin-6-ylamine]
IC50 [4]: 2000 nM | IC50 (Her-2 in MCF-7 cells): 1000 nM

C#CCCCn1c(Cc2cc(OC)ccc2OC)nc2c(N)ncnc21 [Compound 8, 8-(2,5-Dimethoxy-benzyl)-9-pent-4-ynyl-9H-purin-6-ylamine]
IC50 [4]: 6000 nM | IC50 (Her-2 in MCF-7 cells): 1500 nM

COc1ccc(OC)c(Cc2nc3c(N)ncnc3n2CCC=C(C)C)c1 [Compound 10, 8-(2,5-Dimethoxy-benzyl)-9-(4-methyl-pent-3-enyl)-9H-purin-6-ylamine]
IC50 [4]: 2800 nM | IC50 (Her-2 in MCF-7 cells): 1500 nM

C=CCNC1=C2C[C@@H](C)C[C@H](OC)[C@H](O)[C@@H](C)/C=C(\C)[C@H](OC(N)=O)[C@@H](OC)/C=C\C=C(/C)C(=O)NC(=CC1=O)C2=O [Compound 17-AAG, 17-allylamino,17-desmethoxy-geldanamycin, reference compound]
IC50 ([1]; read-out: HER-2 IC50): 12.9 ± 0.3 nM | IC50 ([2]; 5 days): 32 ± 4 nM

C#CCCCn1c(Cc2cc(OC)ccc2I)nc2c(N)ncnc21 [Compound 26, 8-(2-Iodo-5-methoxy-benzyl)-9-pent-4-ynyl-9H-purin-6-ylamine]
IC50 [4]: 1100 nM | IC50 (Her-2 in MCF-7 cells): 1500 nM

COc1ccc(I)c(Cc2nc3c(N)ncnc3n2CCC=C(C)C)c1 [Compound 27, 8-(2-Iodo-5-methoxy-benzyl)-9-(4-methyl-pent-3-enyl)-9H-purin-6-yl amine]
IC50 [4]: 900 nM | IC50 (Her-2 in MCF-7 cells): 800 nM

COc1ccc(I)c(Cc2nc3c(N)nc(F)nc3n2CCC=C(C)C)c1 [Compound 28, 2-Fluoro-8-(2-iodo-5-methoxy-benzyl)-9-(4-methyl-pent-3-enyl)-9H-purin-6-ylamine]
IC50 [4]: 2300 nM | IC50 (Her-2 in MCF-7 cells): 1000 nM

C#CCCCn1c(Cc2cc(OC)ccc2I)nc2c(N)nc(F)nc21 [Compound 29, 2-Fluoro-8-(2-iodo-5-methoxy-benzyl)-9-pent-4-ynyl-9H-purin-6-ylamine]
IC50 [4]: 900 nM | IC50 (Her-2 in MCF-7 cells): 800 nM

CCCCn1c(Sc2cc(OC)ccc2I)nc2c(N)ncnc21 [Compound 44, 9-Butyl-8-(2-iodo-5-methoxy-phenylsulfanyl)-9H-purin-6-ylamine]
IC50 [4]: 1500 nM | IC50 (Her-2 in MCF-7 cells): 1500 nM

CCCCn1c(Sc2ccc(I)c(OC)c2)nc2c(N)ncnc21 [Compound 45, 9-Butyl-8-(4-iodo-3-methoxy-phenylsulfanyl)-9H-purin-6-ylamine]
IC50 [4]: 1800 nM | IC50 (Her-2 in MCF-7 cells): 2000 nM

COc1ccc(I)c(Sc2nc3c(N)ncnc3n2CCC=C(C)C)c1 [Compound 46, 8-(2-Iodo-5-methoxy-phenylsulfanyl)-9-(4-methyl-pent-3-enyl)-9H-purin-6-ylamine]
IC50 [1, 10]: 370 nM | IC50 [4]: 900 nM | IC50 (Her-2 in MCF-7 cells): 300 nM

C#CCCCn1c(Sc2cc(OC)ccc2I)nc2c(N)ncnc21 [Compound 47, 8-(2-Iodo-5-methoxy-phenylsulfanyl)-9-pent-4-ynyl-9H-purin-6-ylamine]
IC50 [4]: 800 nM | IC50 (Her-2 in MCF-7 cells): 300 nM

C#CCCCn1c(Sc2cc(OC)ccc2OC)nc2c(N)ncnc21 [Compound 57, 8-(2,5-dimethoxy-phenylsulfanyl)-9-pent-4-ynyl-9H-purin-6-ylamine]
IC50 [4]: 4000 nM | IC50 (Her-2 in MCF-7 cells): 1400 nM

COc1ccc(OC)c(Sc2nc3c(N)ncnc3n2CCC=C(C)C)c1 [Compound 63, 8-(2,5-dimethoxy-phenylsulfanyl)-9-(4-methyl-pent-3-enyl)-9H-purin-6-ylamine]
IC50 [4]: 1300 nM | IC50 (Her-2 in MCF-7 cells): 700 nM

COc1ccc(I)c(Sc2nc3c(N)ncnc3n2CCCNC(C)(C)C)c1 [Compound 95, 9-(3-tert-Butylamino-propyl)-8-(2-iodo-5-methoxy-phenylsulfanyl)-9H-purin-6-ylamine]
IC50 [1, 8]: 140 nM | bioavailability (in vivo; oral, 100 mg/kg): ≥ 50% | IC50 [2, 9]: 200 nM | IV Parameters T1/2 [3]: 96 min | IV Parameters VSS [3]: 24 L/kg | IV Parameters Cl [3]: 131 mL/min/kg | PO Parameters T1/2 [3]: 54 min | PO Parameters Tmax [3]: 30 min | PO Parameters Cmax [3]: 6700 ng/mL | PO Parameters AUC [3]: 680 µg·min/mL | PO Parameters % F [3]: 97%

CCC(CC)NCCCn1c(Sc2cc(OC)ccc2I)nc2c(N)ncnc21 [Compound 108, 9-[3-(1-Ethyl-propylamino)-propyl]-8-(2-iodo-5-methoxy-phenylsulfanyl)-9H-purin-6-ylamine]
IC50 [1, 8]: 210 nM | IC50 ([1]; Homo sapiens, MCF7, MCF-7 cells, read-out: HER-2 IC50): 210 nM | Cmax (in vivo; po, 100 mg/kg): 12 µM | IC50 [2, 9]: 200 nM | IC50 ([2]; Homo sapiens, MCF7): 200 nM | IV Parameters T1/2 [3]: 30 min | IV Parameters VSS [3]: 2.4 L/kg | IV Parameters Cl [3]: 69 mL/min/kg | PO Parameters T1/2 [3]: 36 min | PO Parameters Tmax [3]: 30 min | PO Parameters Cmax [3]: 5800 ng/mL | PO Parameters AUC [3]: 590 µg·min/mL | PO Parameters % F [3]: 42%

COc1ccc(I)c(Sc2nc3c(N)ncnc3n2CCNCC(C)(C)C)c1.O=P(O)(O)O [Compound 132.H3PO4, 9-[2-(2,2-Dimethyl-propylamino)-ethyl]-8-(2-iodo-5-methoxy-phenylsulfanyl)-9H-purin-6-ylamine, H3PO4 salt]
tumor growth inhibition ([5]; N87): statistically significant (p=0.02) tumor growth inhibition | toxicity ([5]; mice): no overt toxicity

CCOP(=O)(CCn1c(Sc2nc3cncc(Cl)c3s2)nc2c(N)ncnc21)OCC [Compound 206, {2-[6-Amino-8-(7-chloro-thiazolo[4,5-c]pyridinl-2-ylsulfanyl)-purin-9-yl]-ethyl}-phosphonic acid diethyl ester]
plasma concentrations (in words) ([6]; PO 100 mg/kg): below the level of detection | Cmax ([6]; in vivo, po, 100 mg/kg): < 500 ng/mL | solubility compared with benzothioazol analog 204 ([7]; simulated gastric fluid, simulated intestinal fluid, serum): significantly more soluble in all three solutions | Serum (PH 7.4) [7]: 14 µg/mL | Gastric (PH 2.0) [7]: 124 µg/mL | Intestinal (PH 6.5) [7]: 38.3 µg/mL

N#CCCCCn1c(Sc2nc3cccc(Cl)c3s2)nc2c(N)ncnc21 [Compound 284, 5-[6-Amino-8-(7-chloro-benzothiazol-2-ylsulfanyl)-purin-9-yl]-pentanenitrile]
IC50 ([1]; Homo sapiens, MCF7, read-out: HER-2): 110 nM | Serum (PH 7.4) [7]: 31.3 µg/mL | Gastric (PH 2.0) [7]: 58.7 µg/mL | Intestinal (PH 6.5) [7]: 4.4 µg/mL

C#CCCCn1c(Sc2cc(OC)ccc2I)nc2c(N)ncnc21 [Compound 309, 8-(2-iodo-5-methoxy-phenylsulfanyl)-9-pent-4-ynyl-9H-purin-6-ylamine]
IC50 [2, 9]: 700 nM
